Results reported in US11384381B2, “Reaction accelerating agent” (Kikkoman Corporation, priority 2016, dated 2022).

Assays:
Format in all cases: biochemical
[1] = system: cholesterol oxidase (CHO-CE); experiment: Acceleration of cholesterol detection reaction with small amount of cholesterol oxidase (Example 13); details: 0.04% (w/v) compound, 2.31 U/ml CHO-CE; for effect of accelerating cholesterol detection reaction: versus not added; for Degree of progression of reaction (%) after 7.5 minutes / Degree of progression of reaction (%) after 10 minutes: cholesterol detection reaction, ΔA/ΔA100%; for Degree of progression of reaction (%) after 7.5 minutes: 2.5 minutes after addition of second reagent, not added: 65; for Degree of progression of reaction (%) after 10 minutes: 5 minutes after addition of second reagent, not added: 88
Protocol: Next, in this Example, the degree of acceleration of cholesterol detection reaction by the compound of the present invention was determined using a small amount of cholesterol oxidase.
A reagent for cholesterol measurement having the following composition was prepared, and the measurement of cholesterol was carried out using Bio Majesty JCA-BM […] (manufactured by JEOL Ltd.).
32 μM cholesterol (manufactured by Wako Pure Chemical Industries, Ltd.)
5.0% (v/v) Triton X-100 (manufactured by Wako Pure Chemical Industries, Ltd.)
4.0% (w/v) sodium cholate (manufactured by Wako Pure Chemical Industries, Ltd.)
30 mM MOPS-NaOH buffer solution, pH 7.0
(§1) 10 U/ml peroxidase PEO-301 (Toyobo Co., Ltd.)
(§2) 0.023 mM 10-(carboxymethylaminocarbonyl)-3,7-bis(dimethylamino)phenothiazine sodium (DA-67, manufactured by Wako Pure Chemical Industries, Ltd.)
(§3) 0.04% (w/v) of the compound of Comparative Example 2, any one compound of the present invention, or compound-free (Comparative Example 1) ion-exchange water as shown in Table 1
10 mM MOPS-NaOH buffer solution, pH 7.0
2.31 U/ml CHO-CE (manufactured by Kikkoman Biochemifa Company)
(§4) 8 μl of the sample was added to 96 μl of the first reagent-E, and the mixture was incubated at 37° C. for 5 minutes. Then, 24 μl of the second reagent-J was added thereto, and the quantitative reaction of hydrogen peroxide resulting from the oxidation of cholesterol was allowed to progress at 37° C. for 5 minutes. The absorbance (A694 and A751) of the reaction solution for light at wavelengths of 694 nm and 751 nm was measured over time for 10 minutes after the mixing of the sample with the first reagent-E to determine the value of subtraction of A751 from A694, i.e., the value A694/751. Subsequently, ΔA was calculated by subtracting, from A694/751, the value of (104/128) times A694/751 4.8 minutes after the mixing of the sample with the first reagent-E. Incidentally, 5 minutes after the mixing of the sample with the first reagent-E represents the time immediately before the addition of the second reagent-J.
Next, ΔA calculated in this Example was divided by ΔA100% defined in Example 12 to calculate the degree of progression of cholesterol detection reaction. The degree of progression of cholesterol detection reaction 7.5 and 10 minutes after the mixing of the sample with the first reagent-E (in other words, 2.5 and 5 minutes after the addition of the second reagent-J) is shown in Table 10.

[2] = system: fructosyl amino acid oxidase (FAOD-E); experiment: Acceleration of fructosyl valine detection reaction with small amount of fructosyl amino acid oxidase (Example 9); details: 0.04% (w/v) compound, 2.14 U/ml FAOD-E; for effect of accelerating fructosyl valine detection reaction: versus not added; for Degree of progression of reaction (%) after 7.5 minutes / Degree of progression of reaction (%) after 10 minutes: fructosyl valine detection reaction, ΔA/ΔA100%; for Degree of progression of reaction (%) after 7.5 minutes: 2.5 minutes after addition of second reagent, not added: 29; for Degree of progression of reaction (%) after 10 minutes: 5 minutes after addition of second reagent, not added: 48
Protocol: Next, in this Example, the degree of acceleration of fructosyl valine detection reaction by the compound of the present invention was determined using a small amount of fructosyl amino acid oxidase.
A reagent for fructosyl valine measurement having the following composition was prepared, and the measurement of fructosyl valine was carried out using Bio Majesty JCA-BM1650 (manufactured by JEOL Ltd.).
32 μM fructosyl valine (manufactured by Kikkoman Biochemifa Company)
(§5) 30 mM MOPS-NaOH buffer solution, pH 8.0
0.2% (v/v) NYMEEN F-215 (manufactured by NOF Corp.)
as §1, §2, §3
(§6) 10 mM MOPS-NaOH buffer solution, pH 8.0
2.14 U/ml FAOD-E (manufactured by Kikkoman Biochemifa Company)
as §4, with “reagent-C,” for “reagent-E,”, “reagent-F” for “reagent-J”, “fructosyl valine” for “cholesterol”, “reagent-C” for “reagent-E”, “reagent-C.” for “reagent-E.”, “reagent-F.” for “reagent-J.”
Next, ΔA calculated in this Example was divided by ΔA100% defined in Example 8 to calculate the degree of progression of fructosyl valine detection reaction. The degree of progression of fructosyl valine detection reaction 7.5 and 10 minutes after the mixing of the sample with the first reagent-C (in other words, 2.5 and 5 minutes after the addition of the second reagent-F) is shown in Table 6.

[3] = system: sarcosine oxidase (SOD-TE); experiment: Acceleration of sarcosine detection reaction with small amount of sarcosine oxidase (Example 11); details: 0.04% (w/v) compound, 12.3 U/ml SOD-TE; for effect of accelerating sarcosine detection reaction: versus not added; for Degree of progression of reaction (%) after 7.5 minutes / Degree of progression of reaction (%) after 10 minutes: sarcosine detection reaction, ΔA/ΔA100%; for Degree of progression of reaction (%) after 7.5 minutes: 2.5 minutes after addition of second reagent, not added: 60; for Degree of progression of reaction (%) after 10 minutes: 5 minutes after addition of second reagent, not added: 82
Protocol: Next, in this Example, the degree of acceleration of sarcosine detection reaction by the compound of the present invention was determined using a small amount of sarcosine oxidase.
A reagent for sarcosine measurement having the following composition was prepared, and the measurement of sarcosine was carried out using Bio Majesty JCA-BM1650 (manufactured by JEOL Ltd.).
32 μM sarcosine (manufactured by Wako Pure Chemical Industries, Ltd.)
as §5
0.2% (v/v) NP-10 (manufactured by HELM)
as §1
0.023 mM 10-(carboxymethylaminocarbonyl)-3,7-bis(dimethylamino)phenothiazine sodium
(DA-67, manufactured by Wako Pure Chemical Industries, Ltd.)
as §3, §6
12.3 U/ml SOD-TE (manufactured by Kikkoman Biochemifa Company)
8 μl of the sample was added to […] of the first reagent-D, and the mixture was incubated at 37° C. for 5 minutes. Then, 24 μl of the second reagent-H was added thereto, and the quantitative reaction of hydrogen peroxide resulting from the oxidation of sarcosine was allowed to progress at 37° C. for 5 minutes. The absorbance (A694 and A751) of the reaction solution for light at wavelengths of 694 nm and 751 nm was measured over time for 10 minutes after the mixing of the sample with the first reagent-D to determine the value of subtraction of A751 from A694, i.e., the value A694/751. Subsequently, ΔA was calculated by subtracting, from A694/751, the value of (104/128) times A694/751 4.8 minutes after the mixing of the sample with the first reagent-D. Incidentally, 5 minutes after the mixing of the sample with the first reagent-D represents the time immediately before the addition of the second reagent-H.
Next, ΔA calculated in this Example was divided by ΔA100% defined in Example 10 to calculate the degree of progression of sarcosine detection reaction. The degree of progression of sarcosine detection reaction 7.5 and 10 minutes after the mixing of the sample with the first reagent-D (in other words, 2.5 and 5 minutes after the addition of the second reagent-H) is shown in Table 8.

Compound | effect of accelerating cholesterol detection reaction [1] | Degree of progression of reaction (%) after 7.5 minutes [1] [%] | Degree of progression of reaction (%) after 10 minutes [1] [%] | effect of accelerating fructosyl valine detection reaction [2] | Degree of progression of reaction (%) after 7.5 minutes [2] [%] | Degree of progression of reaction (%) after 10 minutes [2] [%] | effect of accelerating sarcosine detection reaction [3] | Degree of progression of reaction (%) after 7.5 minutes [3] [%] | Degree of progression of reaction (%) after 10 minutes [3] [%]
Cc1nn(-c2cc(S(=O)(=O)[O-])ccc2Cl)c(O)c1N=Nc1ccccc1.[Na+] [Acid Yellow 34] | effect of accelerating cholesterol detection reaction | 72 | 92 | – | – | – | – | – | –
O=S(=O)([O-])c1cccc(N=Nc2ccc(Nc3ccccc3)cc2)c1.[Na+] [Acid Yellow 36] | effect of accelerating cholesterol detection reaction | 73 | 92 | – | – | – | – | – | –
O=C([O-])c1cc(N=Nc2cccc([N+](=O)[O-])c2)ccc1O.[Na+] [Alizarin Yellow GG] | effect of accelerating cholesterol detection reaction | 73 | 93 | effect of accelerating fructosyl valine detection reaction | 38 | 62 | effect of accelerating sarcosine detection reaction | 64 | 86
O=C(O)c1cc(N=Nc2ccc3cc(S(=O)(=O)O)ccc3c2)ccc1O.[Na] [Chrome Yellow] | effect of accelerating cholesterol detection reaction | 67 | 91 | effect of accelerating fructosyl valine detection reaction | 43 | 68 | effect of accelerating sarcosine detection reaction | 65 | 87
COc1cc(N=Nc2cccc(S(=O)(=O)[O-])c2)ccc1NC(=O)Nc1ccc(N=Nc2ccc(O)c(C(=O)[O-])c2)cc1.[Na+].[Na+] [Direct Yellow 44] | – | – | – | – | – | – | effect of accelerating sarcosine detection reaction | 68 | 89
COc1cc(N=Nc2ccc(N)cc2)c(C)cc1N [Disperse Diazo Black 3BF] | effect of accelerating cholesterol detection reaction | 66 | 97 | effect of accelerating fructosyl valine detection reaction | 86 | 89 | effect of accelerating sarcosine detection reaction | 63 | 84
O=C([O-])c1cc(N=Nc2ccc([N+](=O)[O-])cc2)ccc1O.[Na+] [Mordant Orange 1] | effect of accelerating cholesterol detection reaction | 74 | 94 | effect of accelerating fructosyl valine detection reaction | 37 | 59 | effect of accelerating sarcosine detection reaction | 67 | 88
Acid Red 151 | effect of accelerating cholesterol detection reaction | 74 | 94 | – | – | – | effect of accelerating sarcosine detection reaction | 68 | 89
Xylene Fast Yellow 2G | – | – | – | – | – | – | effect of accelerating sarcosine detection reaction | 64 | 86
